Assay results from the supplement of paper PMC10307832.

What was measured:
Assay in all cases: relative viability (nuclei count vs DMSO), 5 days (fraction); higher = more cells survive
[1] = test system: NCI-H23
Summary of the method: (§1)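 Values are medians from duplicate plates. Each reflects relative viability, defined as the nuclei count of treated wells over that of vehicle wells. Lung cancer cell lines in 1536-well plates were pin-tool dosed one day after seeding with one drug alone or with a fixed anchor-drug dose plus five library-drug doses (not always all listed) in √10 steps, then fixed, stained and imaged at 4× after 5 days.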

[2] = test system: NCI-H1793
Summary of the method: as §1

[3] = test system: LCLC-103H
Summary of the method: as §1

[4] = test system: NCI-H2347
Summary of the method: as §1

[5] = test system: PC-3 [JPC-3]
Summary of the method: as §1

[6] = test system: NCI-H727
Summary of the method: as §1

[7] = test system: NCI-H2228
Summary of the method: as §1

[8] = test system: SW 1573
Summary of the method: as §1

[9] = test system: LCLC-97TM1
Summary of the method: as §1

[10] = test system: NCI-H1650
Summary of the method: as §1

[11] = test system: 201T
Summary of the method: as §1

[12] = test system: HCC-44
Summary of the method: as §1

[13] = test system: LU99A
Summary of the method: as §1

[14] = test system: A-427
Summary of the method: as §1

[15] = test system: NCI-H596
Summary of the method: as §1

[16] = test system: PC-14
Summary of the method: as §1

[17] = test system: SW 900
Summary of the method: as §1

[18] = test system: COR-L23
Summary of the method: as §1

[19] = test system: LC-2-ad
Summary of the method: as §1

[20] = test system: LK-2
Summary of the method: as §1

[21] = test system: H3255
Summary of the method: as §1

[22] = test system: NCI-H460
Summary of the method: as §1

CCN(CC)CCCCNc1ncc2cc(-c3cc(OC)cc(OC)c3)c(NC(=O)NC(C)(C)C)nc2n1 + Cc1cc(Nc2cc(N3CCN(C)CC3)nc(Sc3ccc(NC(=O)C4CC4)cc3)n2)n[nH]1 [Tozasertib] (partner 0.1 µM)
relative viability ([1]; first compound 0.01 µM): 0.408 | relative viability ([1]; first compound 0.03162 µM): 0.405 | relative viability ([1]; first compound 0.1 µM): 0.352 | relative viability ([1]; first compound 0.3162 µM): 0.301 | relative viability ([1]; first compound 1 µM): 0.339 | relative viability ([2]; first compound 0.01 µM): 0.311 | relative viability ([2]; first compound 0.03162 µM): 0.367 | relative viability ([2]; first compound 0.1 µM): 0.362 | relative viability ([2]; first compound 0.3162 µM): 0.348 | relative viability ([2]; first compound 1 µM): 0.241 | relative viability ([3]; first compound 0.01 µM): 0.588 | relative viability ([3]; first compound 0.03162 µM): 0.486 | relative viability ([3]; first compound 0.1 µM): 0.54 | relative viability ([3]; first compound 0.3162 µM): 0.452 | relative viability ([3]; first compound 1 µM): 0.31 | relative viability ([4]; first compound 0.01 µM): 0.509 | relative viability ([4]; first compound 0.03162 µM): 0.508 | relative viability ([4]; first compound 0.1 µM): 0.718 | relative viability ([4]; first compound 0.3162 µM): 0.607 | relative viability ([4]; first compound 1 µM): 0.551 | relative viability ([5]; first compound 0.01 µM): 0.988 | relative viability ([5]; first compound 0.03162 µM): 0.958 | relative viability ([5]; first compound 0.1 µM): 1.09 | relative viability ([5]; first compound 0.3162 µM): 0.892 | relative viability ([5]; first compound 1 µM): 0.632 | relative viability ([6]; first compound 0.01 µM): 0.661 | relative viability ([6]; first compound 0.03162 µM): 0.521 | relative viability ([6]; first compound 0.1 µM): 0.571 | relative viability ([6]; first compound 0.3162 µM): 0.659 | relative viability ([6]; first compound 1 µM): 0.525 | relative viability ([7]; first compound 0.01 µM): 0.183 | relative viability ([7]; first compound 0.03162 µM): 0.231 | relative viability ([7]; first compound 0.1 µM): 0.319 | relative viability ([7]; first compound 0.3162 µM): 0.258 | relative viability ([7]; first compound 1 µM): 0.197 | relative viability ([8]; first compound 0.01 µM): 0.249 | relative viability ([8]; first compound 0.03162 µM): 0.148 | relative viability ([8]; first compound 0.1 µM): 0.225 | relative viability ([8]; first compound 0.3162 µM): 0.193 | relative viability ([8]; first compound 1 µM): 0.173 | relative viability ([9]; first compound 0.01 µM): 0.236 | relative viability ([9]; first compound 0.03162 µM): 0.268 | relative viability ([9]; first compound 0.1 µM): 0.255 | relative viability ([9]; first compound 0.3162 µM): 0.34 | relative viability ([9]; first compound 1 µM): 0.236 | relative viability ([10]; first compound 0.01 µM): 0.362 | relative viability ([10]; first compound 0.03162 µM): 0.305 | relative viability ([10]; first compound 0.1 µM): 0.392 | relative viability ([10]; first compound 0.3162 µM): 0.361 | relative viability ([10]; first compound 1 µM): 0.247 | relative viability ([11]; first compound 0.01 µM): 0.995 | relative viability ([11]; first compound 0.03162 µM): 0.992 | relative viability ([11]; first compound 0.1 µM): 0.979 | relative viability ([11]; first compound 0.3162 µM): 1.02 | relative viability ([11]; first compound 1 µM): 0.721 | relative viability ([12]; first compound 0.01 µM): 1.1 | relative viability ([12]; first compound 0.03162 µM): 1.07 | relative viability ([12]; first compound 0.1 µM): 0.953 | relative viability ([12]; first compound 0.3162 µM): 0.899 | relative viability ([12]; first compound 1 µM): 0.85 | relative viability ([13]; first compound 0.01 µM): 0.283 | relative viability ([13]; first compound 0.03162 µM): 0.281 | relative viability ([13]; first compound 0.1 µM): 0.324 | relative viability ([13]; first compound 0.3162 µM): 0.269 | relative viability ([13]; first compound 1 µM): 0.265 | relative viability ([14]; first compound 0.01 µM): 0.199 | relative viability ([14]; first compound 0.03162 µM): 0.206 | relative viability ([14]; first compound 0.1 µM): 0.202 | relative viability ([14]; first compound 0.3162 µM): 0.174 | relative viability ([14]; first compound 1 µM): 0.182 | relative viability ([15]; first compound 0.01 µM): 0.911 | relative viability ([15]; first compound 0.03162 µM): 0.903 | relative viability ([15]; first compound 0.1 µM): 1.05 | relative viability ([15]; first compound 0.3162 µM): 0.828 | relative viability ([15]; first compound 1 µM): 0.747 | relative viability ([16]; first compound 0.01 µM): 0.689 | relative viability ([16]; first compound 0.03162 µM): 0.578 | relative viability ([16]; first compound 0.1 µM): 0.62 | relative viability ([16]; first compound 0.3162 µM): 0.685 | relative viability ([16]; first compound 1 µM): 0.598 | relative viability ([17]; first compound 0.01 µM): 0.662 | relative viability ([17]; first compound 0.03162 µM): 0.573 | relative viability ([17]; first compound 0.3162 µM): 0.451 | relative viability ([17]; first compound 1 µM): 0.382 | relative viability ([18]; first compound 0.01 µM): 0.226 | relative viability ([18]; first compound 0.03162 µM): 0.205 | relative viability ([18]; first compound 0.1 µM): 0.157 | relative viability ([18]; first compound 0.3162 µM): 0.206 | relative viability ([18]; first compound 1 µM): 0.171 | relative viability ([19]; first compound 0.01 µM): 0.416 | relative viability ([19]; first compound 0.03162 µM): 0.467 | relative viability ([19]; first compound 0.1 µM): 0.433 | relative viability ([19]; first compound 0.3162 µM): 0.483 | relative viability ([19]; first compound 1 µM): 0.453 | relative viability ([20]; first compound 0.01 µM): 0.168 | relative viability ([20]; first compound 0.03162 µM): 0.196 | relative viability ([20]; first compound 0.1 µM): 0.184 | relative viability ([20]; first compound 0.3162 µM): 0.213 | relative viability ([20]; first compound 1 µM): 0.159 | relative viability ([21]; first compound 0.01 µM): 0.91 | relative viability ([21]; first compound 0.03162 µM): 0.654 | relative viability ([21]; first compound 0.1 µM): 0.544 | relative viability ([21]; first compound 0.3162 µM): 0.607 | relative viability ([21]; first compound 1 µM): 0.585 | relative viability ([22]; first compound 0.01 µM): 0.458 | relative viability ([22]; first compound 0.03162 µM): 0.66 | relative viability ([22]; first compound 0.1 µM): 0.477 | relative viability ([22]; first compound 0.3162 µM): 0.474 | relative viability ([22]; first compound 1 µM): 0.311
